From patent US20140073631A1 (priority 2012, published 2014)
≈ marks a conversion by molar mass, not a printed value.

How the values were obtained:
Assay in all cases: microbe, parasite or virus in culture
[1] = system: isoniazid (INH)-resistant Mtb (SRI 1369); type: cell-based, Mycobacterium tuberculosis; settings: for MIC: Mycobacterium tuberculosis, read-out: MIC INH-R
[2] = system: rifampin (RMP)-resistant Mtb (SRI 1367); type: cell-based, Mycobacterium tuberculosis; settings: for MIC: Mycobacterium tuberculosis, read-out: MIC RMP-R
[3] = system: ofloxacin (OFX)-resistant Mtb (SRI 4000); type: cell-based, Mycobacterium tuberculosis; settings: for MIC: Mycobacterium tuberculosis, read-out: MIC OFX-R
[4] = system: ATCC 35830 Ethionamide Resistant; type: cell-based; settings: Mycobacterium tuberculosis, ATCC35830, read-out: MIC Value, ATCC 35830 Ethionamide Resistant
[5] = system: ATCC 35837 Ethambutol Resistant; type: cell-based; settings: Mycobacterium tuberculosis, ATCC35837, read-out: MIC Value, ATCC 35837 Ethambutol Resistant
[6] = system: ATCC 35827 Kanamycin Resistant; type: cell-based; settings: Mycobacterium tuberculosis, ATCC35827, read-out: MIC Value, ATCC 35827 Kanamycin Resistant
[7] = system: ATCC 35822 Isoniazid Resistant; type: cell-based; settings: Mycobacterium tuberculosis, ATCC35822, read-out: MIC Value, ATCC 35822 Isoniazid Resistant
[8] = system: ATCC 35821 Para-aminosalicylic Resistant; type: cell-based, Mycobacterium tuberculosis; settings: for MIC: Mycobacterium tuberculosis, ATCC35821, read-out: MIC Value, ATCC 35821 Para-aminosalicylic Resistant
[9] = system: ATCC 35820 Streptomycin Resistant; type: cell-based; settings: Mycobacterium tuberculosis, ATCC35820, read-out: MIC Value, ATCC 35820 Streptomycin Resistant

SMILES | MIC [4] [µg/mL] | MIC [5] [µg/mL] | MIC [6] [µg/mL] | MIC [7] [µg/mL] | MIC [9] [µg/mL] | other results
N=C(NCCCCCCNC(=N)NC(=N)N1CCN(c2cc3c(cc2F)c(=O)c(C(=O)O)cn3C2CC2)CC1)NC(=N)N1CCN(c2cc3c(cc2F)c(=O)c(C(=O)O)cn3C2CC2)CC1 [BVS-10A] | – | – | – | – | – | % inhibition at the MIC concentration [1]: 53%; MIC [1]: 1.56 µg/mL (≈ 1.71 µM); % inhibition at the MIC concentration [2]: 58%; MIC [2]: 6.25 µg/mL (≈ 6.85 µM); % inhibition at the MIC concentration [3]: 74%; MIC [3]: 0.781 µg/mL (≈ 0.855 µM)
CO[C@H]1/C=C/O[C@@]2(C)Oc3c(C)c(O)c4c(O)c(c(/C=N/N5CCN(C)CC5)c(O)c4c3C2=O)NC(=O)/C(C)=C\C=C\[C@H](C)[C@H](O)[C@@H](C)[C@@H](O)[C@@H](C)[C@H](OC(C)=O)[C@@H]1C [Rifampin, rifampin, reference compound] | – | – | – | – | – | % inhibition at the MIC concentration [1]: 67%; MIC [1]: 0.049 µg/mL (≈ 0.0595 µM); % inhibition at the MIC concentration [3]: 75%; MIC [3]: 0.195 µg/mL (≈ 0.237 µM)
CCc1cc(C(N)=S)ccn1 [Ethionamide, reference compound] | > 8 | – | – | – | – | –
C[C@@H]1COc2c(N3CCN(C(=N)NC(=N)NCCCCCCNC(=N)NC(=N)N4CCN(c5c(F)cc6c(=O)c(C(=O)O)cn7c6c5OC[C@@H]7C)CC4)CC3)c(F)cc3c(=O)c(C(=O)O)cn1c23 [BVS-85A (XVII)] | 0.625 (≈ 0.661 µM) | 1.25 (≈ 1.32 µM) | 1.25 to 2.5 (≈ 1.32 to 2.65 µM) | 1.25 (≈ 1.32 µM) | 0.625 (≈ 0.661 µM) | MIC [8]: 2.5 µg/mL (≈ 2.65 µM)
C[C@@H]1COc2c(N3CCN(C(=N)NC(=N)N4CCN(c5c(F)cc6c(=O)c(C(=O)O)cn7c6c5OC[C@@H]7C)CC4)CC3)c(F)cc3c(=O)c(C(=O)O)cn1c23 [BVS-76D (XVII)] | 0.156 (≈ 0.205 µM) | 0.312 to 0.625 (≈ 0.41 to 0.82 µM) | 0.625 (≈ 0.82 µM) | 0.625 (≈ 0.82 µM) | 0.312 (≈ 0.41 µM) | MIC [8]: 0.625 to 1.25 µg/mL (≈ 0.82 to 1.64 µM)
Nc1ccc(C(=O)O)c(O)c1 [Para-aminosalicylic, reference compound] | – | – | – | – | – | MIC Value, ATCC 35821 Para-aminosalicylic Resistant [8]: >8 µg/mL
NC[C@H]1O[C@H](O[C@H]2[C@H](O)[C@@H](O[C@H]3O[C@H](CO)[C@@H](O)[C@H](N)[C@H]3O)[C@H](N)C[C@@H]2N)[C@H](O)[C@@H](O)[C@@H]1O [Kanamycin, reference compound] | – | – | > 8 | – | – | –
CC1COc2c(N3CCN(C(=N)NC#N)CC3)c(F)cc3c(=O)c(C(=O)O)cn1c23 (stereo not drawn) [BVS-60C (XVII)] | 0.312 (≈ 0.753 µM) | 0.625 (≈ 1.51 µM) | 0.625 (≈ 1.51 µM) | 0.625 (≈ 1.51 µM) | 0.312 (≈ 0.753 µM) | MIC [8]: 0.625 to 1.25 µg/mL (≈ 1.51 to 3.02 µM)
CC[C@@H](CO)NCCN[C@@H](CC)CO [Ethambutol, reference compound] | – | > 8 | – | – | – | –
[H]/N=C(/N)N[C@H]1[C@H](O)[C@@H](O)[C@H](O[C@@H]2O[C@@H](C)[C@](O)(C=O)[C@H]2O[C@@H]2O[C@@H](CO)[C@H](O)[C@@H](O)[C@@H]2NC)[C@@H](N/C(N)=N\[H])[C@@H]1O [Streptomycin, reference compound] | – | – | – | – | > 8 | –
NNC(=O)c1ccncc1 [Isoniazid, isoniazid, reference compound] | – | – | – | > 8 | – | % inhibition at the MIC concentration [2]: 86%; MIC [2]: 0.02 µg/mL (≈ 0.146 µM)
